Test results: US12258327B2, “5-membered heteroaryl-containing aminopyridine compounds as EGFR inhibitors” (YUHAN CORPORATION, priority 2021, dated 2025)
Read-outs that look alike come from different tables or passages of the source.

Experiments:
EGFR del19/T790M/C797S = EGFR del19/T790M/C797S (Homo sapiens, UniProt P00533, C797S/DEL746-750/T790M); experiment: Biochemical EGFR kinase assay (Lance Ultra TR-FRET), triple mutant del19/T790M/C797S
In short: (§1)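 Kinase activity is measured by TR-FRET phosphopeptide detection. Compounds span 0.003 μM to 10 μM; the 1 h reaction at room temperature is quenched with EDTA, then labelled antibody (2 nM) is incubated 60 min before reading.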

EGFR L858R/T790M/C797S = EGFR L858R/T790M/C797S (Homo sapiens, UniProt P00533, C797S/L858R/T790M); experiment: Biochemical EGFR kinase assay (Lance Ultra TR-FRET), triple mutant L858R/T790M/C797S
In short: as §1

EGFR del19/C797S = EGFR del19/C797S (Homo sapiens, UniProt P00533, C797S/DEL746-750); experiment: Biochemical EGFR kinase assay (Lance Ultra TR-FRET), double mutant del19/C797S
In short: as §1

EGFR L858R/C797S = EGFR L858R/C797S (Homo sapiens, UniProt P00533, C797S/L858R); experiment: Biochemical EGFR kinase assay (Lance Ultra TR-FRET), double mutant L858R/C797S
In short: as §1

EGFR wildtype (WT) = EGFR wildtype (WT) (Homo sapiens, UniProt P00533); experiment: Biochemical EGFR kinase assay (Lance Ultra TR-FRET), wildtype
In short: as §1

[1] = IC50 del19/T790M/C797S (nM) 100 μM ATP, 100 μM ATP
[2] = Km ATP, read-out: IC50 del19/T790M/C797S (nM) Km ATP
[3] = IC50 L858R/T790M/C797S (nM) 100 μM ATP, 100 μM ATP
[4] = Km ATP, read-out: IC50 L858R/T790M/C797S (nM) Km ATP
[5] = IC50 del19/C797S (nM) 100 μM ATP, 100 μM ATP
[6] = Km ATP, read-out: IC50 del19/C797S (nM) Km ATP
[7] = IC50 L858R/C797S (nM) 100 μM ATP, 100 μM ATP
[8] = Km ATP, read-out: IC50 L858R/C797S (nM) Km ATP
[9] = IC50 WT (nM) 100 μM ATP, 100 μM ATP
[10] = Km ATP, read-out: IC50 WT (nM) Km ATP

EGFR del19/T790M/C797S, sequence (P00533 with tags, fused parts or gaps DEL746-750/T790M/C797S): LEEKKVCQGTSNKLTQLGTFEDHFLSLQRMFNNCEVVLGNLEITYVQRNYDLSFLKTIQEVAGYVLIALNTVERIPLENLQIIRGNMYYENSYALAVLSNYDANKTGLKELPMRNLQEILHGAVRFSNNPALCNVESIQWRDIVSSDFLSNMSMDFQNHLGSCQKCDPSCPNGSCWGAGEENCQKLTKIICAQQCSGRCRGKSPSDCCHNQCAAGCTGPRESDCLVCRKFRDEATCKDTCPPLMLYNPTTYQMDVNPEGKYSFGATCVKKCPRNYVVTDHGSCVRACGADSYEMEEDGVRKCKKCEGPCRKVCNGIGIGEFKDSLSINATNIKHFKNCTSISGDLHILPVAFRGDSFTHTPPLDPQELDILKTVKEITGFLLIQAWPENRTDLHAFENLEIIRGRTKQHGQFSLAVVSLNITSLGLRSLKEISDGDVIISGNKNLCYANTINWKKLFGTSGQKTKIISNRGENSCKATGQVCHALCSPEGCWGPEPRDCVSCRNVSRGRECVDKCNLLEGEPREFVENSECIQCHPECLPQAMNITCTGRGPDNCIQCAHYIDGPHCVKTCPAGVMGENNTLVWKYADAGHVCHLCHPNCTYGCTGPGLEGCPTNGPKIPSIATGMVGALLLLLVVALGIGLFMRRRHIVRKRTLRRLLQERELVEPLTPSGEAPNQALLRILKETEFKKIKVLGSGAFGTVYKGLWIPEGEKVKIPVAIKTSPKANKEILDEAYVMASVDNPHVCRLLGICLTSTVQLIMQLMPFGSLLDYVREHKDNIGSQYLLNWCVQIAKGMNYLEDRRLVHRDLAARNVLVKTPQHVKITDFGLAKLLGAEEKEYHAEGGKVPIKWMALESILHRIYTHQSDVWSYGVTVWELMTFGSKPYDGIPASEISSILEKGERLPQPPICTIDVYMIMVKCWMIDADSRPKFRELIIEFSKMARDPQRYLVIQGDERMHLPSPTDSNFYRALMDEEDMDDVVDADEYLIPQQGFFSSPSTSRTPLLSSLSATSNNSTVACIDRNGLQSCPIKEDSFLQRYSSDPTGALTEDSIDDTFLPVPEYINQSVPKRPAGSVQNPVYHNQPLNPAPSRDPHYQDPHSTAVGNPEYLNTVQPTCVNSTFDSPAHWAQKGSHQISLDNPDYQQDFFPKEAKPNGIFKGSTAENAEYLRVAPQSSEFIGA
EGFR L858R/C797S, sequence (P00533 25-1210 C797S/L858R): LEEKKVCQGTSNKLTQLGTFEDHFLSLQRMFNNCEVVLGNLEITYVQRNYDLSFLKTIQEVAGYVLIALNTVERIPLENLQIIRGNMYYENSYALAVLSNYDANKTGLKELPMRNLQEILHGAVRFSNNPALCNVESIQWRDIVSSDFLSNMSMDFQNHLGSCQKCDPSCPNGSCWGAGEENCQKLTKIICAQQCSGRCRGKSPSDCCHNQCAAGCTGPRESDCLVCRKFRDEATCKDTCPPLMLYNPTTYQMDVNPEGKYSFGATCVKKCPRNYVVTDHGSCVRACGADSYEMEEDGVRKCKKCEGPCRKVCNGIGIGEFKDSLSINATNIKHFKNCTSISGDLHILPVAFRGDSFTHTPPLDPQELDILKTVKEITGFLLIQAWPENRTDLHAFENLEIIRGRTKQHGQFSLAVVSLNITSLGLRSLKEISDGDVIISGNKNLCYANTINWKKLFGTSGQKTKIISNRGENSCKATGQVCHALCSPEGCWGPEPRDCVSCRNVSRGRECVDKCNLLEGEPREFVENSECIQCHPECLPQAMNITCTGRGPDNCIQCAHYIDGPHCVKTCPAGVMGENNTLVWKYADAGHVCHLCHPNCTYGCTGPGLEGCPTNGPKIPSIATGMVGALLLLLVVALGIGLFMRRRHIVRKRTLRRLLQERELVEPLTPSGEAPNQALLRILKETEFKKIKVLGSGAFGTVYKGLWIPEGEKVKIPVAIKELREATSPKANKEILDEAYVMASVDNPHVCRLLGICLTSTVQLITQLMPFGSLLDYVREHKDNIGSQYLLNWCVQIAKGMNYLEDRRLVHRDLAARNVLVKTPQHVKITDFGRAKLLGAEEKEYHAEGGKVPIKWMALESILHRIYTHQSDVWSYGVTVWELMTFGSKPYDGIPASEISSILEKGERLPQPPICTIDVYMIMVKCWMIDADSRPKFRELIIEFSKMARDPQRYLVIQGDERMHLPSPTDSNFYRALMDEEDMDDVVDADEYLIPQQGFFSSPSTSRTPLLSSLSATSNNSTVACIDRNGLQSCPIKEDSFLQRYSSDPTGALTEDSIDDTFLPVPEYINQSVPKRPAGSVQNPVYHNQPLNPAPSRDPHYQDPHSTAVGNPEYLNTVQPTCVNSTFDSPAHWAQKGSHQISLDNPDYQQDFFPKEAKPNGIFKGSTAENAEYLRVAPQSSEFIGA
EGFR wildtype (WT), sequence (P00533 25-1210): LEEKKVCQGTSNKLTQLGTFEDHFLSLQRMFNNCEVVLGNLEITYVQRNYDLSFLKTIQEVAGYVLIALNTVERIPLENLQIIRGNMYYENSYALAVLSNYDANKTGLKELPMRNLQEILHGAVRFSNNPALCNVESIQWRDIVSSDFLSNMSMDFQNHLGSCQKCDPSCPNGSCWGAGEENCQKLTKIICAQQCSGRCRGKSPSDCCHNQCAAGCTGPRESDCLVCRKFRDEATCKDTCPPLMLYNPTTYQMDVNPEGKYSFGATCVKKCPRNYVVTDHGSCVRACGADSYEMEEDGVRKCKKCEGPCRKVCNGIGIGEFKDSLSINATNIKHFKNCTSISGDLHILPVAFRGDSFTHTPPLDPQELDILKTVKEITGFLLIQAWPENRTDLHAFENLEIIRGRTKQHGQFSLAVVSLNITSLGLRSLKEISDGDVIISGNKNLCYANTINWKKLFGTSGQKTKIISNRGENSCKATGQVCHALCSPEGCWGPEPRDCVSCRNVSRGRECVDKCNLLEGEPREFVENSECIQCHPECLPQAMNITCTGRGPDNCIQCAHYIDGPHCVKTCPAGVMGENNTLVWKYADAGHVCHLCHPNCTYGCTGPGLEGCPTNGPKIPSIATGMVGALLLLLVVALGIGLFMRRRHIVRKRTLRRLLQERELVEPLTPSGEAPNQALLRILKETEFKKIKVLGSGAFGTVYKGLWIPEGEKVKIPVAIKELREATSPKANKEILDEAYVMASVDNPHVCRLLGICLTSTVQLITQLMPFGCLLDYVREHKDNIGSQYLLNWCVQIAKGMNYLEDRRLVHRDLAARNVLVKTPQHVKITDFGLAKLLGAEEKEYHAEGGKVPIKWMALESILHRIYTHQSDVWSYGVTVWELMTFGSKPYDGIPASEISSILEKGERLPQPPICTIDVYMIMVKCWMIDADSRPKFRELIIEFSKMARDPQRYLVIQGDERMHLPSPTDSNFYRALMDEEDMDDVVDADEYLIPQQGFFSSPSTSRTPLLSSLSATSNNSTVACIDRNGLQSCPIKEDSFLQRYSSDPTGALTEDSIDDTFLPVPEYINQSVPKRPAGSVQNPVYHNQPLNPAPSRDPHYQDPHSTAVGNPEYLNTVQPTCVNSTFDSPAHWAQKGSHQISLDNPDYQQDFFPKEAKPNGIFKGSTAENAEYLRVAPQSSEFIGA
EGFR L858R/T790M/C797S, sequence (P00533 25-1210 T790M/C797S/L858R): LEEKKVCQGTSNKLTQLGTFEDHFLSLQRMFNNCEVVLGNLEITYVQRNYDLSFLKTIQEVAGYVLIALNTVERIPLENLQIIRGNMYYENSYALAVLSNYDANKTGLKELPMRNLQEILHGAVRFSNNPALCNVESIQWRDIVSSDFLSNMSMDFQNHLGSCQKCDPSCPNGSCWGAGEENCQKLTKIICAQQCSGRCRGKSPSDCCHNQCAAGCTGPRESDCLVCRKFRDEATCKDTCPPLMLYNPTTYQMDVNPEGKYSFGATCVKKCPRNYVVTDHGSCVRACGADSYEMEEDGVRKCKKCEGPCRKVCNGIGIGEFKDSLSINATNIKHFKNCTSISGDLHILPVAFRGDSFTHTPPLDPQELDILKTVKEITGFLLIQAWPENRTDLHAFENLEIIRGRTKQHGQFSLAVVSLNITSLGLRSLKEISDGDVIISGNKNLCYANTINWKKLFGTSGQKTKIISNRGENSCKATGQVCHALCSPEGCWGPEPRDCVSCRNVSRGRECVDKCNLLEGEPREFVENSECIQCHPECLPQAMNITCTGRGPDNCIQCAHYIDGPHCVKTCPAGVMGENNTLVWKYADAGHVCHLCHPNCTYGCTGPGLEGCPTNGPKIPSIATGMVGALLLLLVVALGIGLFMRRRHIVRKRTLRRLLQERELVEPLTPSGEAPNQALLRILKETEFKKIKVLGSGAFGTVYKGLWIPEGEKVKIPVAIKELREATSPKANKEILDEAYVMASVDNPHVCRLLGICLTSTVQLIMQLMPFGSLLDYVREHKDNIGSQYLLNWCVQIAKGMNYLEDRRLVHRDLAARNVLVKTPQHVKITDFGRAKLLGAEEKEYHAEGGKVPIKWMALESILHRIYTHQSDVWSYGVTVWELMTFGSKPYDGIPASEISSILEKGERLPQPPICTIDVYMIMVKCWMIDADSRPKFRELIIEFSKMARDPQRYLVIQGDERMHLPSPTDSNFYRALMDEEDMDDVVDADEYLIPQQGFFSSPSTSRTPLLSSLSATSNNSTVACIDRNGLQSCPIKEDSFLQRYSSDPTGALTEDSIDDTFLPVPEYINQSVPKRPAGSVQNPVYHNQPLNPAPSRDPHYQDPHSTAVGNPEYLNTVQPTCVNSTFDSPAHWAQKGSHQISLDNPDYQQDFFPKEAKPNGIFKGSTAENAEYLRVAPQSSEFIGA

Structure (SMILES) | IC50 (EGFR del19/T790M/C797S; [1]) | IC50 (EGFR del19/T790M/C797S; [2]) | IC50 (EGFR L858R/T790M/C797S; [3]) | IC50 (EGFR L858R/T790M/C797S; [4]) | IC50 (EGFR del19/C797S; [5]) | IC50 (EGFR del19/C797S; [6]) | IC50 (EGFR L858R/C797S; [7]) | IC50 (EGFR L858R/C797S; [8]) | IC50 (EGFR wildtype (WT); [9]) | IC50 (EGFR wildtype (WT); [10])
CN(C)CC1CCC(Nc2cc(Nc3ccnc(-c4cnn(S(=O)(=O)C5CC5)c4)n3)ncc2-c2ccn(C3COC3)n2)CC1 (stereo not drawn) [Example 284, N^2-(2-(1-(Cyclopropylsulfonyl)-1H-pyrazol-4-yl)pyrimidin-4-yl)-N^4-((1s,4s)-4-((dimethylamino)methyl)cyclohexyl)-5-(1-(oxetan-3-yl)-1H-pyrazol-3-yl)pyridine-2,4-diamine] | 0.1 nM | 0.1 nM | 0.1 nM | 0.1 nM | 0.4 nM | 0.1 nM | 0.9 nM | 0.1 nM | 387 nM | 0.8 nM
O=S(=O)(C1CC1)n1cc(-c2nccc(Nc3cc(N[C@H]4CC[C@@H](F)CC4)c(-c4ccn(C(F)(F)F)n4)cn3)n2)cn1 [Example 286, N^2-(2-(1-(Cyclopropylsulfonyl)-1H-pyrazol-4-yl)pyrimidin-4-yl)-N^4-((1s,4s)-4-fluorocyclohexyl)-5-(1-(trifluoromethyl)-1H-pyrazol-3-yl)pyridine-2,4-diamine] |  | 20.2 nM |  | 4.8 nM |  | 90.9 nM |  | 188 nM |  | 1010 nM
CN1CCC(n2ccc(-c3cnc(Nc4ccnc(-c5cnn(S(=O)(=O)C6CC6)c5)n4)cc3N[C@H]3CC[C@@](C)(O)CC3)n2)CC1 [Example 287, (1s,4s)-4-((2-((2-(1-(Cyclopropylsulfonyl)-1H-pyrazol-4-yl)pyrimidin-4-yl)amino)-5-(1-(1-methylpiperidin-4-yl)-1H-pyrazol-3-yl)pyridin-4-yl)amino)-1-methylcyclohexan-1-ol] |  | 0.2 nM |  | 0.1 nM |  | 0.3 nM |  | 0.1 nM |  | 0.3 nM
CN(C)CCCn1ccc(-c2cnc(Nc3ccnc(-c4cnn(S(=O)(=O)C5CC5)c4)n3)cc2N[C@H]2CC[C@@](C)(O)CC2)n1 [Example 288, (1s,4s)-4-((2-((2-(1-(Cyclopropylsulfonyl)-1H-pyrazol-4-yl)pyrimidin-4-yl)amino)-5-(1-(3-(dimethylamino)propyl)-1H-pyrazol-3-yl)pyridin-4-yl)amino)-1-methylcyclohexan-1-ol] | 0.2 nM |  | 0.2 nM |  | 0.2 nM |  | 0.4 nM |  | 133 nM | 
C[C@]1(O)CC[C@@H](Nc2cc(Nc3ccnc(-c4cnn(S(=O)(=O)C5CC5)c4)n3)ncc2-c2ccn(C3CC3)n2)CC1 [Example 290, (1s,4s)-4-((5-(1-Cyclopropyl-1H-pyrazol-3-yl)-2-((2-(1-(cyclopropylsulfonyl)-1H-pyrazol-4-yl)pyrimidin-4-yl)amino)pyridin-4-yl)amino)-1-methylcyclohexan-1-ol] | 0.1 nM | 0.1 nM | 0.2 nM | 0.1 nM | 0.5 nM | 0.2 nM | 3.4 nM | 0.3 nM | 2500 nM | 2 nM
Cc1cc(-c2cnc(Nc3ccnc(-c4cnn(S(=O)(=O)C5CC5)c4)n3)cc2N[C@H]2CC[C@@](C)(O)CC2)nn1C [Example 291, (1s,4s)-4-((2-((2-(1-(Cyclopropylsulfonyl)-1H-pyrazol-4-yl)pyrimidin-4-yl)amino)-5-(1,5-dimethyl-1H-pyrazol-3-yl)pyridin-4-yl)amino)-1-methylcyclohexan-1-ol] | 0.4 nM | 0.3 nM | 0.3 nM | 0.2 nM | 0.6 nM | 0.2 nM |  | 0.3 nM | 941 nM | 0.3 nM
C[C@]1(O)CC[C@@H](Nc2cc(Nc3ccnc(-c4cnn(S(=O)(=O)C5CC5)c4)n3)ncc2-c2ccn(C3COC3)n2)CC1 [Example 292, (1s,4s)-4-((2-((2-(1-(Cyclopropylsulfonyl)-1H-pyrazol-4-yl)pyrimidin-4-yl)amino)-5-(1-(oxetan-3-yl)-1H-pyrazol-3-yl)pyridin-4-yl)amino)-1-methylcyclohexan-1-ol] | 0.2 nM | 0.5 nM | 0.2 nM | 0.1 nM | 0.8 nM | 0.4 nM | 6.6 nM | 0.1 nM | 6970 nM | 

More lines, now with the values ahead:

IC50 (EGFR del19/T790M/C797S; [1]) | IC50 (EGFR del19/T790M/C797S; [2]) | IC50 (EGFR L858R/T790M/C797S; [3]) | IC50 (EGFR L858R/T790M/C797S; [4]) | IC50 (EGFR del19/C797S; [5]) | IC50 (EGFR del19/C797S; [6]) | IC50 (EGFR L858R/C797S; [7]) | IC50 (EGFR L858R/C797S; [8]) | IC50 (EGFR wildtype (WT); [9]) | IC50 (EGFR wildtype (WT); [10]) | Structure (SMILES)
0.6 nM | 0.4 nM | 0.4 nM | 0.2 nM | 0.9 nM | 0.8 nM |  | 0.3 nM | 183 nM | 0.6 nM | Cn1nc(-c2cnc(Nc3ccnc(-c4cnn(S(=O)(=O)C5CC5)c4)n3)cc2N[C@H]2CC[C@@](C)(O)CC2)cc1C(C)(C)O [Example 293, (1s,4s)-4-((2-((2-(1-(Cyclopropylsulfonyl)-1H-pyrazol-4-yl)pyrimidin-4-yl)amino)-5-(5-(2-hydroxypropan-2-yl)-1-methyl-1H-pyrazol-3-yl)pyridin-4-yl)amino)-1-methylcyclohexan-1-ol]
 | 0.4 nM |  | 0.2 nM |  | 1 nM |  | 0.1 nM |  | 0.9 nM | COCn1ccc(-c2cnc(Nc3ccnc(-c4cnn(S(=O)(=O)C5CC5)c4)n3)cc2N[C@H]2CC[C@@](C)(O)CC2)n1 [Example 294, (1s,4s)-4-((2-((2-(1-(Cyclopropylsulfonyl)-1H-pyrazol-4-yl)pyrimidin-4-yl)amino)-5-(1-(methoxymethyl)-1H-pyrazol-3-yl)pyridin-4-yl)amino)-1-methylcyclohexan-1-ol]
0.2 nM | 0.1 nM | 0.1 nM | 0.1 nM | 0.3 nM | 0.1 nM | 0.5 nM | 0.1 nM | 48.8 nM | 0.3 nM | CN(C)CCCn1ccc(-c2cnc(Nc3ccnc(-c4cnn(S(=O)(=O)C5CC5)c4)n3)cc2N[C@H]2CC[C@@H](CO)CC2)n1 [Example 296, ((1s,4s)-4-((2-((2-(1-(Cyclopropylsulfonyl)-1H-pyrazol-4-yl)pyrimidin-4-yl)amino)-5-(1-(3-(dimethylamino)propyl)-1H-pyrazol-3-yl)pyridin-4-yl)amino)cyclohexyl)methanol]
0.2 nM | 0.1 nM | 0.5 nM | 0.1 nM | 0.7 nM | 0.5 nM | 3.9 nM | 0.3 nM | 582 nM | 1.6 nM | O=S(=O)(C1CC1)n1cc(-c2nccc(Nc3cc(N[C@H]4CC[C@@H](CO)CC4)c(-c4ccn(C5CC5)n4)cn3)n2)cn1 [Example 297, ((1s,4s)-4-((5-(1-Cyclopropyl-1H-pyrazol-3-yl)-2-((2-(1-(cyclopropylsulfonyl)-1H-pyrazol-4-yl)pyrimidin-4-yl)amino)pyridin-4-yl)amino)cyclohexyl)methanol]
1.8 nM |  | 1 nM | 0.3 nM | 0.8 nM | 1 nM | 1.7 nM | 1.1 nM | 504 nM | 1.6 nM | Cn1nc(-c2cnc(Nc3ccnc(-c4cnn(S(=O)(=O)C5CC5)c4)n3)cc2N[C@H]2CC[C@@H](C(C)(C)O)CC2)cc1C(C)(C)O [Example 298, 2-(3-(6-((2-(1-(Cyclopropylsulfonyl)-1H-pyrazol-4-yl)pyrimidin-4-yl)amino)-4-(((1s,4s)-4-(2-hydroxypropan-2-yl)cyclohexyl)amino)pyridin-3-yl)-1-methyl-1H-pyrazol-5-yl)propan-2-ol]
 | 1.1 nM |  | 0.3 nM |  | 4.1 nM |  | 0.5 nM |  | 5 nM | COCn1ccc(-c2cnc(Nc3ccnc(-c4cnn(S(=O)(=O)C5CC5)c4)n3)cc2N[C@H]2CC[C@@H](C(C)(C)O)CC2)n1 [Example 299, 2-((1s,4s)-4-((2-((2-(1-(Cyclopropylsulfonyl)-1H-pyrazol-4-yl)pyrimidin-4-yl)amino)-5-(1-(methoxymethyl)-1H-pyrazol-3-yl)pyridin-4-yl)amino)cyclohexyl)propan-2-ol]
 | 1.3 nM |  | 0.8 nM |  | 32.6 nM |  | 0.5 nM |  | 44.8 nM | CC(C)(O)[C@H]1CC[C@@H](Nc2cc(Nc3ccnc(-c4cnn(S(=O)(=O)C5CC5)c4)n3)ncc2-c2ccn(CCC(F)(F)F)n2)CC1 [Example 300, 2-((1s,4s)-4-((2-((2-(1-(Cyclopropylsulfonyl)-1H-pyrazol-4-yl)pyrimidin-4-yl)amino)-5-(1-(3,3,3-trifluoropropyl)-1H-pyrazol-3-yl)pyridin-4-yl)amino)cyclohexyl)propan-2-ol]
0.1 nM |  | 0.1 nM |  | 0.4 nM |  | 3.5 nM |  | 1370 nM |  | CN(C)CCCn1ccc(-c2cnc(Nc3ccnc(-c4cnn(S(=O)(=O)C5CC5)c4)n3)cc2N[C@H]2CC[C@@H](NCCF)CC2)n1 [Example 301, N^2-(2-(1-(Cyclopropylsulfonyl)-1H-pyrazol-4-yl)pyrimidin-4-yl)-5-(1-(3-(dimethylamino)propyl)-1H-pyrazol-3-yl)-N^4-((1s,4s)-4-((2-fluoroethyl)amino)cyclohexyl)pyridine-2,4-diamine]
